Drawing on patent US8759535B2, “Substituted fused imidazole derivatives, pharmaceutical compositions, and methods of use thereof” (High Point Pharmaceuticals, LLC, priority 2010, dated 2014), this text covers fold induction for twelve molecules.

Counter-ions that a name gives are not always drawn.

One assay relates to HMOX1. Put plainly: HMOX1 Protein Assay (immunostaining of HO-1 in NHLF cells, GE InCell 1000). It counts as cell-based. Particulars: Homo sapiens, fold change above DMSO treated cells, 3 μM compound (asterisk), 16 h. An outline of the steps: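 Fold induction of HO-1 over vehicle, normally at 5 μM compound (asterisk marks 3 μM), in 0.8% DMSO medium. Normal human lung fibroblasts were treated 16 h, then paraformaldehyde-fixed, anti-HO-1/Alexa 488 stained with Hoechst, and read by high-content imaging.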
`Cn1c(Nc2nc3ccc(Cl)cc3s2)nc2cc(C(=O)NCCF)ccc21` [Example 209, 2-(6-Chloro-benzothiazol-2-ylamino)-1-methyl-1H-benzoimidazole-5-carboxylic acid (2-fluoro-ethyl)-amide] displayed a fold induction at 3 µM of 14.2.
`CN1CCN(CCCNC(=O)c2ccc3c(c2)nc(Nc2nc4ccc(Cl)cc4s2)n3C)CC1` [Example 356, 2-(6-Chloro-benzothiazol-2-ylamino)-1-methyl-1H-benzoimidazole-5-carboxylic acid [3-(4-methyl-piperazin-1-yl)-propyl]-amide] came in with a fold induction at 3 µM of 19.

Still in this assay, the particulars now being: Homo sapiens, fold change above DMSO treated cells, 5 μM compound, 16 h.
The molecule `Cn1c(Nc2nc3ccc(OC(F)(F)F)cc3s2)nc2cc(C(=O)NC3CCCNC3)ccc21` (stereo not drawn) [Example 95, 1-Methyl-2-(6-trifluoromethoxy-benzothiazol-2-ylamino)-1H-benzoimidazole-5-carboxylic acid piperidin-3-ylamide hydrochloride] registered a fold induction at 5 µM of 11.2.
`Cn1c(Nc2nc3ccc(OC(F)(F)F)cc3s2)nc2cc(C(=O)NCCOCCCO)ccc21` [Example 246, 1-Methyl-2-(6-trifluoromethoxy-benzothiazol-2-ylamino)-1H-benzoimidazole-5-carboxylic acid [2-(3-hydroxy-propoxy)-ethyl]-amide] returned a fold induction at 5 µM of 76.5.
Same read-out and setting: to `CC(=O)NCCOCCNC(=O)c1ccc2c(c1)nc(Nc1nc3ccc(OC(F)(F)F)cc3s1)n2C` [Example 275, 1-Methyl-2-(6-trifluoromethoxy-benzothiazol-2-ylamino)-1H-benzoimidazole-5-carboxylic acid [2-(2-acetylamino-ethoxy)-ethyl]-amide] belongs 77.4; to `COC(=O)c1ccc2c(c1)nc(Nc1nc3ccc(Cl)cc3s1)n2C` [Example 28, 2-(6-Chloro-benzothiazol-2-ylamino)-1-methyl-1H-benzoimidazole-5-carboxylic acid methyl ester], 10.1.
Same read-out and setting: then `CN1CCC(NC(=O)c2ccc3c(c2)nc(Nc2nc4ccc(Cl)cc4s2)n3C)CC1` [Example 319, 2-(6-Chloro-benzothiazol-2-ylamino)-1-methyl-1H-benzoimidazole-5-carboxylic acid (1-methyl-piperidin-4-yl)-amide], with 23.9; and `CN(C)CCOCCNC(=O)c1ccc2c(c1)nc(Nc1nc3ccc(OC(F)(F)F)cc3s1)n2C` [Example 273, 1-Methyl-2-(6-trifluoromethoxy-benzothiazol-2-ylamino)-1H-benzoimidazole-5-carboxylic acid [2-(2-dimethylamino-ethoxy)-ethyl]-amide], with 25.3.
Same read-out and setting: then `Cn1c(Nc2nc3ccc(OC(F)(F)F)cc3s2)nc2cc(C(=O)NCCCCO)ccc21` [Example 219, 1-Methyl-2-(6-trifluoromethoxy-benzothiazol-2-ylamino)-1H-benzoimidazole-5-carboxylic acid (4-hydroxy-butyl)-amide], with 40; and `Cn1c(Nc2nc3ccc(OC(F)(F)F)cc3s2)nc2cc(C(=O)NC[C@H]3CC[C@H](O)CC3)ccc21` [Example 232, 1-Methyl-2-(6-trifluoromethoxy-benzothiazol-2-ylamino)-1H-benzoimidazole-5-carboxylic acid (trans-4-hydroxy-cyclohexylmethyl)-amide], with 33; and `CN1CCN(C(=O)CCCNC(=O)c2ccc3c(c2)nc(Nc2nc4ccc(Cl)cc4s2)n3C)CC1` [Example 377, 2-(6-Chloro-benzothiazol-2-ylamino)-1-methyl-1H-benzoimidazole-5-carboxylic acid [4-(4-methyl-piperazin-1-yl)-4-oxo-butyl]-amide], with 20.3.
As for `Cn1c(Nc2nc3ccc(C(F)(F)F)cc3s2)nc2cc(C(=O)NCCOCCO)ccc21` [Example 236, 1-Methyl-2-(6-trifluoromethyl-benzothiazol-2-ylamino)-1H-benzoimidazole-5-carboxylic acid [2-(2-hydroxy-ethoxy)-ethyl]-amide], the fold induction at 5 µM worked out at 45.7.

Usually fold induction stands for the ratio of treated to control signal. Low readings indicate a weak induction, high ones a strong induction.
